From patent US20160368919A1, “NOVEL PYRIDINE PYRAZINONES AS BET-FAMILY BROMODOMAIN INHIBITORS” (Pfizer Inc., priority 2015, published 2016) come the findings set out here.

As a reminder, the pIC50 is the IC50 on a negative log10 scale, so that one unit is a factor of ten. A higher pIC50 goes with a small IC50.

pIC50: −log10 of the molar value.

The subject of test [1] is LPS-induced IL-6 production in human whole blood. The test can be described thus: IL-6 human whole blood (HWB) assay, LPS-stimulated, HTRF detection. The test is classed as cell-based. To be noted: 1 ng/ml LPS, 4 hours. As for the experimental part:
Compound effect on IL-6 production was determined using lipopolysaccharide (LPS)-stimulated human whole blood and an HTRF (Homogeneous Time-Resolved Fluorescence) IL-6 detection kit (Human IL6 HTRF Assay CisBio 62IL6PEC). HWB was collected by venous puncture from healthy donors, transferred to a 50 ml polypropylene tube containing sodium heparin (14.3 units per mL of HWB) and then placed in a 37° C. water bath until use. To start the assay, 80 μL of heparin-treated HWB containing 1 ng/ml of LPS (equivalent to LPS ˜EC80 with regard to stimulation of IL-6 production in HWB under these assay conditions) was added to each well of a 384-well, sterile, endotoxin-free, polypropylene plate (Greiner 781281) containing 160 nL of various concentrations of test compound (each plate also contained positive and negative control wells to define the upper and lower limits of the assay signal). The plate was then placed in a thermoshaker incubator set to 370C (Boekel 270440). The final assay concentration (FAC) of test compound ranged from 60 to 0.0006 μM and the FAC of DMSO was 0.2%. After 4 hours, the assay plate was removed from the incubator and centrifuged at 700×g for 10 minutes. 5 μL of the resulting upper plasma layer was removed from each well and diluted 1:2 with 1×Dulbecco's phosphate buffered saline (DPBS). 5 μL of this diluted plasma was then transferred to a white 384-well low volume assay plate (Greiner 784080) containing 5 μL of combined anti-IL-6-Cryptate and anti-IL-6-XL665 detection antibodies (per manufacturer's protocol). The plate was then sealed with a Top Seal (Perkin Elmer 6005185) and incubated at room temperature (RT, 20° C.). After 16-18 hrs (overnight), the HTRF assay signal was read on an Envision 2103 plate reader using a Lance Delfia Dual/Bias mirror TRF laser excitation and emission was measured at 665 nm and 615 nm respectively. The percent (%) effect was calculated for each concentration of test compound and was relative to the amount of HTRF signal produced by the positive and negative control wells contained within each assay plate. The concentrations and % effect values for test compounds were plotted versus each other with a proprietary curve fitting program using a four-parameter logistic dose response equation and the concentration of compound required for 50% effect (IC50) was determined.
(In general: TR-FRET usually uses a lanthanide donor and a delayed reading to cut background.)

The target of test [2] is T1, BRD4 BD1 (Homo sapiens, UniProt O60885).
T1 construct: His-tagged BRD4 BD1 (44-160); made in house
The test can be described thus: BRD4 BD1 Fluorescence Polarization (FP) competition binding assay. The following applies: BRD4 BD1 40 nM, probe PFI-411FP 2 nM. As for the experimental part:
Compound binding to BRD4 BD1 was assessed with a FP competition binding assay. […] All assay components were diluted in 50 mM HEPES pH 7.4 containing 0.08% bovine serum albumin (assay buffer). To start the assay, 8 μL of BRD4 BD1 was added to each well of a low volume 384-well black flat bottom microtiter plate (Corning 3820) containing 4 μl of various concentrations of test compound (each plate also contained positive and negative control wells to define the upper and lower limits of the assay signal). After addition of BRD4 BD1, the assay plate was incubated at room temperature (RT, 20° C.). After 15 minutes, 4 μL of PFI-411FP was added to each well and the assay plate was placed in the dark at RT. The final assay concentration (FAC) of PFI-411FP was 2 nM, the FAC of BRD4 BD1 was 40 nM, the FAC of test compound ranged from 120 to 0.0012 μM and the FAC of DMSO was 0.4%. After 60 min, polarization values were measured with an Envision 2103 multilabel reader (Perkin Elmer) using a Cy5 dual enhanced mirror and excitation at 620 nm and emission at 688 nm. The percent (%) effect was calculated for each concentration of test compound and was relative to the amount of polarization signal produced by the positive and negative control wells contained within each assay plate. The concentrations and % effect values for test compounds were plotted versus each other with a proprietary curve fitting program using a four-parameter logistic dose response equation and the concentration of compound required for 50% effect (IC50) was determined. The Ki values of competitive inhibitors were calculated using the equation described by Nikolovska-Coleska et al. (Development and optimization of a binding assay for the XIAP BIR3 domain using fluorescence polarization. Analytical Biochemistry (2004) 332: 261-273).

`CCC(=O)N(C)c1ccc2nc(NCCC(=O)NC)c(=O)n([C@@H](COC)c3ccccc3)c2n1` [Example 31, N^3-{4-[(1R)-2-methoxy-1-phenylethyl]-6-[methyl(propanoyl)amino]-3-oxo-3,4-dihydropyrido[2,3-b]pyrazin-2-yl}-N-methyl-beta-alaninamide]: the pIC50 is 6.79 in test [1] and 6.96 in test [2].

For the molecule `CCC(=O)N(C)c1ccc2nc(NCCC(=O)NC)c(=O)n([C@@H](CC)c3ccccc3)c2n1` [Example 32, N-methyl-N^3-{6-[methyl(propanoyl)amino]-3-oxo-4-[(1S)-1-phenylpropyl]-3,4-dihydropyrido[2,3-b]pyrazin-2-yl}-beta-alaninamide], the pIC50 in test [1] was 6.58; in test [2], 7.19.

For the molecule `CCC(=O)N(C)c1ccc2nc(NCCC(=O)NC)c(=O)n([C@@H](CC)c3ccccn3)c2n1` [Example 33, N-methyl-N^3-{6-[methyl(propanoyl)amino]-3-oxo-4-[(1S)-1-(pyridin-2-yl)propyl]-3,4-dihydropyrido[2,3-b]pyrazin-2-yl}-beta-alaninamide], the pIC50 in test [1] is 6.35; in test [2], 6.44.

Regarding `CCC(=O)N(C)c1ccc2nc(NCCC(=O)NC)c(=O)n([C@H](c3ccccn3)C(C)C)c2n1` [Example 34, N-methyl-N^3-{6-[methyl(propanoyl)amino]-4-[(1S)-2-methyl-1-(pyridin-2-yl)propyl]-3-oxo-3,4-dihydropyrido[2,3-b]pyrazin-2-yl}-beta-alaninamide], the pIC50 in test [1] is 6.37; in test [2] it was 6.78.

For the molecule `COc1ccccc1[C@H](C)n1c(=O)c(NCCN2CCOCC2)nc2ccc(-c3c(C)noc3C)nc21` [Example 35, 6-(3,5-dimethyl-1,2-oxazol-4-yl)-4-[(1S)-1-(2-methoxyphenyl)ethyl]-2-{[2-(morpholin-4-yl)ethyl]amino}pyrido[2,3-b]pyrazin-3(4H)-one], the pIC50 in test [1] was 6.13; in test [2], 6.71.

As to `CC[C@@H](c1ccccc1)n1c(=O)c(NCCN2CCOCC2)nc2ccc(-c3c(C)noc3C)nc21` [Example 39, 6-(3,5-dimethyl-1,2-oxazol-4-yl)-2-{[2-(morpholin-4-yl)ethyl]amino}-4-[(1S)-1-phenylpropyl]pyrido[2,3-b]pyrazin-3(4H)-one], the pIC50 was 6.08 in test [1] and 6.91 in test [2].

In the case of `Cc1noc(C)c1-c1ccc2nc(NCCN3CCOCC3)c(=O)n([C@@H](C)c3ccccc3)c2n1` [Example 40, 6-(3,5-dimethyl-1,2-oxazol-4-yl)-2-{[2-(morpholin-4-yl)ethyl]amino}-4-[(1S)-1-phenylethyl]pyrido[2,3-b]pyrazin-3(4H)-one], the pIC50 in test [1] was 5.86; in test [2], 6.65.

For `Cc1noc(C)c1-c1ccc2nc(NCC(=O)O)c(=O)n([C@@H](C)c3ccccc3)c2n1` [Example 41, N-{6-(3,5-dimethyl-1,2-oxazol-4-yl)-3-oxo-4-[(1S)-1-phenylethyl]-3,4-dihydropyrido[2,3-b]pyrazin-2-yl}glycine], the values for the pIC50 in test [1] and in test [2] were 4.45 and 6.23, respectively.

`Cc1noc(C)c1-c1ccc2nc(NCCC(=O)O)c(=O)n([C@@H](C)c3ccccc3)c2n1` [Example 42, N-{6-(3,5-dimethyl-1,2-oxazol-4-yl)-3-oxo-4-[(1S)-1-phenylethyl]-3,4-dihydropyrido[2,3-b]pyrazin-2-yl}-beta-alanine]: the values for the pIC50 in test [1] and in test [2] were 5.21 and 6.84, respectively.

In the case of `COc1ccccc1[C@H](C)n1c(=O)c(NCCC(=O)O)nc2ccc(-c3c(C)noc3C)nc21` [Example 43, N-{6-(3,5-dimethyl-1,2-oxazol-4-yl)-4-[(1S)-1-(2-methoxyphenyl)ethyl]-3-oxo-3,4-dihydropyrido[2,3-b]pyrazin-2-yl}-beta-alanine], the pIC50 in test [1] is 5.08; in test [2], 6.24.

On to `CC[C@@H](c1ccccc1)n1c(=O)c(NCCC(=O)O)nc2ccc(-c3c(C)noc3C)nc21` [Example 44, N-{6-(3,5-dimethyl-1,2-oxazol-4-yl)-3-oxo-4-[(1S)-1-phenylpropyl]-3,4-dihydropyrido[2,3-b]pyrazin-2-yl}-beta-alanine], for which the pIC50 in test [1] was 5.59; in test [2] it was 7.05.

As to `CC[C@@H](c1ncccn1)n1c(=O)c(NCCC(=O)O)nc2ccc(-c3c(C)noc3C)nc21` [Example 45, N-{6-(3,5-dimethyl-1,2-oxazol-4-yl)-3-oxo-4-[(1S)-1-(pyrimidin-2-yl)propyl]-3,4-dihydropyrido[2,3-b]pyrazin-2-yl}-beta-alanine], the pIC50 in test [1] was 5.07; in test [2], 6.49.

For the molecule `CC[C@@H](COC)n1c(=O)c(NCCC(=O)O)nc2ccc(-c3c(C)noc3C)nc21` [Example 46, N-{6-(3,5-dimethyl-1,2-oxazol-4-yl)-4-[(2S)-1-methoxybutan-2-yl]-3-oxo-3,4-dihydropyrido[2,3-b]pyrazin-2-yl}-beta-alanine], the pIC50 is 5.21 in test [1] and 6.45 in test [2].

As for `COCC(COC)n1c(=O)c(NCCC(=O)O)nc2ccc(-c3c(C)noc3C)nc21` [Example 48, N-[4-(1,3-dimethoxypropan-2-yl)-6-(3,5-dimethyl-1,2-oxazol-4-yl)-3-oxo-3,4-dihydropyrido[2,3-b]pyrazin-2-yl]-beta-alanine], the pIC50 in test [1] was 4.82; in test [2], 6.33.

`Cc1noc(C)c1-c1ccc2nc(NCCC(=O)NS(C)(=O)=O)c(=O)n([C@@H](C)c3ccccc3)c2n1` [Example 50, N^3-{6-(3,5-dimethyl-1,2-oxazol-4-yl)-3-oxo-4-[(1S)-1-phenylethyl]-3,4-dihydropyrido[2,3-b]pyrazin-2-yl}-N-(methylsulfonyl)-beta-alaninamide]: the pIC50 in test [1] was 4.49; in test [2], 6.63.

As for `Cc1noc(C)c1-c1ccc2nc(NCCc3nnn[nH]3)c(=O)n([C@@H](C)c3ccccc3)c2n1` [Example 51, 6-(3,5-dimethyl-1,2-oxazol-4-yl)-4-[(1S)-1-phenylethyl]-2-{[2-(1H-tetrazol-5-yl)ethyl]amino}pyrido[2,3-b]pyrazin-3(4H)-one], the pIC50 was 4.20 in test [1] and 6.53 in test [2].

Take `CCC[C@@H](c1ccccc1)n1c(=O)c(NCCC(=O)O)nc2ccc(-c3c(C)noc3C)nc21` [Example 52, N-{6-(3,5-dimethyl-1,2-oxazol-4-yl)-3-oxo-4-[(1S)-1-phenylbutyl]-3,4-dihydropyrido[2,3-b]pyrazin-2-yl}-beta-alanine]: the pIC50 in test [1] was 5.96; in test [2], 7.20.

With `Cc1noc(C)c1-c1ccc2nc(NCCC(=O)O)c(=O)n([C@H](c3ccccc3)C(C)C)c2n1` [Example 53, N-{6-(3,5-dimethyl-1,2-oxazol-4-yl)-4-[(1S)-2-methyl-1-phenylpropyl]-3-oxo-3,4-dihydropyrido[2,3-b]pyrazin-2-yl}-beta-alanine], the pIC50 in test [1] is 5.03; in test [2], 6.90.

`Cc1noc(C)c1-c1ccc2nc(NCCC(=O)O)c(=O)n([C@H](c3ccccn3)C(C)C)c2n1` [Example 54, N-{6-(3,5-dimethyl-1,2-oxazol-4-yl)-4-[(1S)-2-methyl-1-(pyridin-2-yl)propyl]-3-oxo-3,4-dihydropyrido[2,3-b]pyrazin-2-yl}-beta-alanine]: the pIC50 in test [1] is 5.58; in test [2], 7.00.
